Data reported in patent publication US8153767B2 (priority 2006, dated 2012).
In brackets after ≈: the same amount, converted by molar mass.

What was measured:
[1] = tested on: mouse antiserum (aflatoxin B1 hapten immunogen)
[2] = tested on: rabbit antiserum (aflatoxin B1 hapten immunogen)
[3] = tested on: monoclonal antibody useful for detecting all aflatoxins (JP-A 4-360695); conditions: cited from earlier work
[4] = tested on: antibody AF-1 (JP-A 63-219394); conditions: cited from earlier work

SMILES | IC50 [1] [ng/mL] | IC50 [2] [ng/mL] | crossreactivities in terms of IC50 [3] [ng/mL] | ability to bind to G1 relative to its ability to bind to B1 or B2 [4]
COc1cc2c(c3oc(=O)c4c(c13)CCC4=O)C1C=COC1O2 (stereo not drawn) [Aflatoxin B1] | 0.07 (≈ 0.224 nM) | 0.07 (≈ 0.224 nM) | 0.44 | 
COc1cc2c(c3oc(=O)c4c(c13)CCC4=O)C1CCOC1O2 (stereo not drawn) [Aflatoxin B2] | 1.5 (≈ 4.77 nM) | 1.7 (≈ 5.41 nM) | 2.1 | 
COc1cc2c(c3oc(=O)c4c(c13)CCOC4=O)C1C=COC1O2 (stereo not drawn) [Aflatoxin G1] | 0.6 (≈ 1.83 nM) | 0.63 (≈ 1.92 nM) | 2.4 | 1/10
COc1cc2c(c3oc(=O)c4c(c13)CCOC4=O)C1CCOC1O2 (stereo not drawn) [Aflatoxin G2] | 16 (≈ 48.4 nM) | 18 (≈ 54.5 nM) | 5.2 | 
COc1cc2c(c3oc(=O)c4c(c13)CCC4=O)C1(O)C=COC1O2 (stereo not drawn) [Aflatoxin M1] | 11 (≈ 33.5 nM) | 14 (≈ 42.6 nM) |  | 
